# Results published in patent US20100298141A1, “SUBSTITUTED PYRIDINE N-OXIDE HERBICIDES” (E. I. DU PONT DE NEMOURS AND COMPANY, priority 2007, published 2010).
# Legend:
# duck salad = test: Test C flooded paddy test; type: in vivo, Heteranthera limosa; conditions: Flood
# Method in brief: (§1)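 Pots were flooded to 3 cm above the soil surface at treatment, compound applied directly to the paddy water, and that depth held throughout. Plants were kept in a greenhouse for 13 to 15 days, then visually rated against untreated controls.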
# Italian ryegrass = test: Test C pre-/postemergence test; type: in vivo, Lolium multiflorum; conditions: for Plant response rating (0 to 100), Ryegrass, Italian / Plant response rating, Ryegrass, Italian: Postemergence; for Plant response rating, Ryegrass, Italian: scale 0 to 100, 0 no effect, 100 complete control
# Method in brief: (§2)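 Compounds in a non-phytotoxic solvent with surfactant applied preemergence to seeded pots and, at the same time, postemergence to plants 2–18 cm tall (1- to 4-leaf stage). Paddy tests: pots flooded to 3 cm, compound applied into the water, depth held throughout.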
# johnsongrass = test: Test C pre-/postemergence test; type: in vivo, Sorghum halepense
# Method in brief: as §2
# velvetleaf [1] = test: Test A pre-/postemergence greenhouse test; type: in vivo, Abutilon theophrasti; conditions: for Plant response rating, Velvetleaf: 0 to 100 scale where 0 is no effect and 100 is complete control; for Velvetleaf plant response rating: 0 to 100 scale
# Method in brief: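 Test compounds in non-phytotoxic solvent with surfactant were applied as a preemergence soil spray to seeded loam/sand pots and, concurrently, postemergence to plants at 2–10 cm, one- to two-leaf stage. About ten days in greenhouse, then injury visually rated against untreated controls.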
# green foxtail = test: Test C pre-/postemergence test; type: in vivo, Setaria viridis
# Method in brief: as §2
# barnyardgrass = test: Test C flooded paddy test; type: in vivo, Echinochloa crus-galli; conditions: Flood
# Method in brief: as §1
# woolly cupgrass = test: Test C pre-/postemergence test; type: in vivo, Eriochloa villosa
# Method in brief: as §2
# velvetleaf [2] = test: Test C pre-/postemergence test; type: in vivo, Abutilon theophrasti
# Method in brief: as §2
# wild oat = test: Test C pre-/postemergence test; type: in vivo, Avena fatua
# Method in brief: as §2
# soybean = test: Test C pre-/postemergence test; type: in vivo, Glycine max
# Method in brief: as §2
# morningglory = test: Test C pre-/postemergence test; type: in vivo, Ipomoea coccinea
# Method in brief: as §2
# corn = test: Test C pre-/postemergence test; type: in vivo, Zea mays
# Method in brief: as §2
# downy brome = test: Test C pre-/postemergence test; type: in vivo, Bromus tectorum
# Method in brief: as §2
# blackgrass = test: Test C pre-/postemergence test; type: in vivo, Alopecurus myosuroides
# Method in brief: as §2
# giant foxtail = test: Test C pre-/postemergence test; type: in vivo, Setaria faberii
# Method in brief: as §2
# cocklebur = test: Test C pre-/postemergence test; type: in vivo, Xanthium strumarium; conditions: for Plant response rating, Cocklebur: scale 0 to 100, 0 no effect, 100 complete control
# Method in brief: as §2
# [3] = 62 g ai/ha, scale 0 to 100 (0 no effect, 100 complete control)
# [4] = 250 g ai/ha, scale 0 to 100, 0 no effect, 100 complete control, 13 to 15 days
# [5] = 62 g ai/ha, Preemergence, scale 0 to 100
# [6] = 125 g ai/ha, preemergence, scale 0 (no effect) to 100 (complete control)
# [7] = preemergence, 250 g ai/ha, scale 0 (no effect) to 100 (complete control)
# [8] = Postemergence, 62 g ai/ha, scale 0 to 100, 0 no effect, 100 complete control
# [9] = Postemergence, 125 g ai/ha, scale 0 to 100, 0 no effect, 100 complete control
# [10] = Postemergence, 250 g ai/ha, scale 0 to 100, 0 no effect, 100 complete control
# [11] = Preemergence, 31 g ai/ha, scale 0 to 100 (0 no effect, 100 complete control)
smiles,measurement,setting,value
CCn1nc(C(F)(F)F)c(CS(=O)(=O)c2cc(C)cc[n+]2[O-])c1OCC(F)(F)F [Compound 64],"Plant response rating, Ducksalad",duck salad; [3],20
same,"Plant response rating, Ducksalad",duck salad; [4],75
same,"Ryegrass, Italian plant response rating",Italian ryegrass; [5],50
same,"Ryegrass, Italian plant response rating",Italian ryegrass; [6],90
same,"Plant response rating (0 to 100), Ryegrass, Italian",Italian ryegrass; 31 g ai/ha,0
same,"Plant response rating (0 to 100), Ryegrass, Italian",Italian ryegrass; 62 g ai/ha,0
same,"Plant response rating, Ryegrass, Italian",Italian ryegrass; 125 g ai/ha,30
same,"Plant response rating, Ryegrass, Italian",Italian ryegrass; 250 g ai/ha,45
same,"Ryegrass, Italian plant response rating",Italian ryegrass; [7],100
same,Johnsongrass plant response rating,johnsongrass; [5],98
same,Johnsongrass plant response rating,johnsongrass; [6],100
same,"Plant response rating (0 to 100), Johnsongrass","johnsongrass; Postemergence, 31 g ai/ha",0
same,"Plant response rating, Johnsongrass",johnsongrass; [8],0
same,"Plant response rating, Johnsongrass",johnsongrass; [9],0
same,"Plant response rating, Johnsongrass",johnsongrass; [10],0
same,"Plant response rating, Johnsongrass",johnsongrass; [11],55
same,Johnsongrass plant response rating,johnsongrass; [7],100
same,"Plant response rating, Velvetleaf","velvetleaf [1]; Postemergence, 125 g ai/ha",60
same,Velvetleaf plant response rating,"velvetleaf [1]; Postemergence, 500 g ai/ha, 0 is no effect, 100 is complete control",70
same,Velvetleaf plant response rating,"velvetleaf [1]; Preemergence, 125 g ai/ha, 0 no effect, 100 complete control",50
same,"Plant response rating, Velvetleaf","velvetleaf [1]; Preemergence, 500 g ai/ha",100
same,"Foxtail, Green plant response rating",green foxtail; [5],100
same,"Foxtail, Green plant response rating",green foxtail; [6],100
same,"Plant response rating (0 to 100), Foxtail, Green","green foxtail; Postemergence, 31 g ai/ha",0
same,"Plant response rating, Foxtail, Green",green foxtail; [8],0
same,"Plant response rating, Foxtail, Green",green foxtail; [9],50
same,"Plant response rating, Foxtail, Green",green foxtail; [10],80
same,"Plant response rating, Foxtail, Green",green foxtail; [11],75
same,"Foxtail, Green plant response rating",green foxtail; [7],100
same,"Plant response rating, Barnyardgrass",barnyardgrass; [3],0
same,"Plant response rating, Barnyardgrass",barnyardgrass; [4],20
same,"Cupgrass, Woolly plant response rating",woolly cupgrass; [5],100
same,"Cupgrass, Woolly plant response rating",woolly cupgrass; [6],100
same,"Plant response rating (0 to 100), Cupgrass, Woolly","woolly cupgrass; Postemergence, 31 g ai/ha",0
same,"Plant response rating, Cupgrass, Woolly",woolly cupgrass; [8],0
same,"Plant response rating, Cupgrass, Woolly",woolly cupgrass; [9],0
same,"Plant response rating, Cupgrass, Woolly",woolly cupgrass; [10],50
same,"Plant response rating, Cupgrass, Woolly",woolly cupgrass; [11],60
same,"Cupgrass, Woolly plant response rating",woolly cupgrass; [7],100
same,Velvetleaf plant response rating,velvetleaf [2]; [5],100
same,Velvetleaf plant response rating,velvetleaf [2]; [6],100
same,"Plant response rating (0 to 100), Velvetleaf","velvetleaf [2]; Postemergence, 31 g ai/ha",0
same,"Plant response rating (0 to 100), Velvetleaf","velvetleaf [2]; Postemergence, 62 g ai/ha",0
same,"Plant response rating, Velvetleaf",velvetleaf [2]; [9],0
same,"Plant response rating, Velvetleaf",velvetleaf [2]; [10],40
same,"Plant response rating, Velvetleaf",velvetleaf [2]; [11],45
same,Velvetleaf plant response rating,velvetleaf [2]; [7],100
same,"Oat, Wild plant response rating",wild oat; [5],80
same,"Oat, Wild plant response rating",wild oat; [6],90
same,"Plant response rating (0 to 100), Oat, Wild","wild oat; Postemergence, 31 g ai/ha",0
same,"Plant response rating, Oat, Wild",wild oat; [8],30
same,"Plant response rating, Oat, Wild",wild oat; [9],50
same,"Plant response rating, Oat, Wild",wild oat; [10],85
same,"Plant response rating, Oat, Wild",wild oat; [11],50
same,"Oat, Wild plant response rating",wild oat; [7],98
same,Soybean plant response rating,soybean; [5],20
same,Soybean plant response rating,soybean; [6],70
same,"Plant response rating (0 to 100), Soybean","soybean; Postemergence, 31 g ai/ha",25
same,"Plant response rating (0 to 100), Soybean","soybean; Postemergence, 62 g ai/ha",25
same,"Plant response rating, Soybean",soybean; [9],30
same,"Plant response rating, Soybean",soybean; [10],35
same,"Plant response rating, Soybean",soybean; [11],0
same,Soybean plant response rating,soybean; [7],80
same,Morningglory plant response rating,morningglory; [5],50
same,Morningglory plant response rating,morningglory; [6],55
same,"Plant response rating (0 to 100), Morningglory","morningglory; Postemergence, 31 g ai/ha",0
same,"Plant response rating, Morningglory",morningglory; [8],0
same,"Plant response rating, Morningglory",morningglory; [9],0
same,"Plant response rating, Morningglory",morningglory; [10],0
same,"Plant response rating, Morningglory",morningglory; [11],0
same,Morningglory plant response rating,morningglory; [7],80
same,Corn plant response rating,corn; [5],95
same,Corn plant response rating,corn; [6],95
same,"Plant response rating (0 to 100), Corn","corn; Postemergence, 31 g ai/ha",0
same,"Plant response rating, Corn",corn; [8],0
same,"Plant response rating, Corn",corn; [9],0
same,"Plant response rating, Corn",corn; [10],0
same,"Plant response rating, Corn",corn; [11],0
same,Corn plant response rating,corn; [7],95
same,"Bromegrass, Downy plant response rating",downy brome; [5],30
same,"Bromegrass, Downy plant response rating",downy brome; [6],85
same,"Plant response rating (0 to 100), Bromegrass, Downy","downy brome; Postemergence, 31 g ai/ha",0
same,"Plant response rating, Bromegrass, Downy",downy brome; [8],0
same,"Plant response rating, Bromegrass, Downy",downy brome; [9],10
same,"Plant response rating, Bromegrass, Downy",downy brome; [10],20
same,"Plant response rating, Bromegrass, Downy",downy brome; [11],30
same,"Bromegrass, Downy plant response rating",downy brome; [7],100
same,Blackgrass plant response rating,blackgrass; [5],90
same,Blackgrass plant response rating,blackgrass; [6],100
same,"Plant response rating (0 to 100), Blackgrass","blackgrass; Postemergence, 31 g ai/ha",20
same,"Plant response rating, Blackgrass",blackgrass; [8],60
same,"Plant response rating, Blackgrass",blackgrass; [9],60
same,"Plant response rating, Blackgrass",blackgrass; [11],90
same,Blackgrass plant response rating,blackgrass; [7],100
same,"Foxtail, Giant plant response rating",giant foxtail; [5],100
same,"Foxtail, Giant plant response rating",giant foxtail; [6],100
same,"Plant response rating (0 to 100), Foxtail, Giant","giant foxtail; Postemergence, 31 g ai/ha",0
same,"Plant response rating, Foxtail, Giant",giant foxtail; [8],0
same,"Plant response rating, Foxtail, Giant",giant foxtail; [9],0
same,"Plant response rating, Foxtail, Giant",giant foxtail; [10],45
same,"Plant response rating, Foxtail, Giant",giant foxtail; [11],85
same,"Foxtail, Giant plant response rating",giant foxtail; [7],100
same,Cocklebur plant response rating,cocklebur; [5],0
same,Cocklebur plant response rating,cocklebur; [6],0
same,"Plant response rating (0 to 100), Cocklebur","cocklebur; Postemergence, 31 g ai/ha",0
same,"Plant response rating, Cocklebur","cocklebur; Postemergence, 62 g ai/ha",0
same,"Plant response rating, Cocklebur","cocklebur; Postemergence, 125 g ai/ha",0
same,"Plant response rating, Cocklebur","cocklebur; Postemergence, 250 g ai/ha",0
